Assay results as given in PubChem BioAssay (NCI).
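In this assay, cells in 96-well plates receive the compound at five concentrations for 48 hours. Endpoints are linearly interpolated between the surrounding concentrations. GI50 is the concentration that inhibits growth by half. TGI: total growth inhibition.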

Columns and labels:
Assay in all cases: NCI-60 cell line screen, 48 h
[1] = tested on: MOLT-4 leukemia
[2] = tested on: EKVX NSCLC
[3] = tested on: MDA-MB-435
[4] = tested on: SW-620 colon
[5] = tested on: SK-OV-3 ovarian
[6] = tested on: LOX IMVI melanoma
[7] = tested on: COLO 205 colon
[8] = tested on: TK-10 renal
[9] = tested on: RXF 393 renal
[10] = tested on: BT-549 breast
[11] = tested on: K-562 leukemia
[12] = tested on: UACC-257 melanoma
[13] = tested on: HCC-2998 colon
[14] = tested on: HS 578T breast
[15] = tested on: M14 melanoma
[16] = tested on: CCRF-CEM leukemia
[17] = tested on: SK-MEL-5 melanoma
[18] = tested on: T-47D breast
[19] = tested on: SF-295 CNS
[20] = tested on: SR leukemia
[21] = tested on: MCF7 breast
[22] = tested on: KM12 colon
[23] = tested on: OVCAR-5 ovarian
[24] = tested on: HT29 colon
[25] = tested on: MALME-3M melanoma
[26] = tested on: UO-31 renal
[27] = tested on: U251 CNS
[28] = tested on: OVCAR-8 ovarian
[29] = tested on: IGROV1 ovarian
[30] = tested on: PC-3 prostate
[31] = tested on: NCI/ADR-RES ovarian
[32] = tested on: NCI-H226 lung
[33] = tested on: SK-MEL-28 melanoma
[34] = tested on: HL-60(TB) leukemia
[35] = tested on: SF-268 CNS
[36] = tested on: DU-145 prostate
[37] = tested on: NCI-H460 lung
[38] = tested on: MDA-MB-231 breast
[39] = tested on: HOP-62 NSCLC
[40] = tested on: ACHN renal
[41] = tested on: HCT-15 colon
[42] = tested on: SK-MEL-2 melanoma
[43] = tested on: 786-0 renal
[44] = tested on: NCI-H522 lung
[45] = tested on: A498 renal
[46] = tested on: SNB-75 CNS
[47] = tested on: NCI-H23 lung
[48] = tested on: UACC-62 melanoma
[49] = tested on: OVCAR-4 ovarian
[50] = tested on: SN12C renal
[51] = tested on: SNB-19 CNS
[52] = tested on: CAKI-1 renal
[53] = tested on: A549 NSCLC
[54] = tested on: HCT-116 colon
[55] = tested on: SF-539 CNS
[56] = tested on: RPMI-8226 leukemia
[57] = tested on: HOP-92 NSCLC

In the case of `CC[C@]12C=CCN3CC[C@]4(C(=C(C(=O)OC)C1)Nc1cc5c(cc14)[C@@H]1[C@H](O5)[C@@H](O)[C@@]4(CC)CC(C(=O)OC)=C5Nc6cc(O)ccc6[C@@]56CCN1C46)C32` (stereo partly specified), the GI50 [1] was 134 nM, the TGI [1] was > 50000 nM and the GI50 [2] was 239 nM. For the same molecule, the TGI [2] was > 24500 nM, the GI50 [3] was 106 nM and the TGI [3] was 1520 nM. It also gave a GI50 [4] of 167 nM, a TGI [4] of 2270 nM and a GI50 [5] of 172 nM. It also gave a TGI [5] of 1060 nM, a GI50 [6] of 59.7 nM and a TGI [6] of 135 nM. The GI50 [7] was 119 nM, the TGI [7] was 619 nM and the GI50 [8] was 64.2 nM. For the same molecule, the TGI [8] was 645 nM, the GI50 [9] was 162 nM and the TGI [9] was 977 nM. It also gave a GI50 [10] of 168 nM, a TGI [10] of 1300 nM and a GI50 [11] of 47.5 nM. The TGI [11] was > 50000 nM, the GI50 [12] was 122 nM and the TGI [12] was > 21500 nM. The GI50 [13] was 75.2 nM, the TGI [13] was 335 nM and the GI50 [14] was 172 nM. The TGI [14] was > 50000 nM, the GI50 [15] was 109 nM and the TGI [15] was 9550 nM. For the same molecule, the GI50 [16] was 94 nM, the TGI [16] was > 50000 nM and the GI50 [17] was 217 nM. For the same molecule, the TGI [17] was > 15300 nM, the GI50 [18] was 103 nM and the GI50 [19] was 187 nM. It also gave a TGI [19] of 9340 nM, a GI50 [20] of 40.1 nM and a TGI [20] of 4280 nM. For the same molecule, the GI50 [21] was 27 nM, the TGI [21] was > 50000 nM and the GI50 [22] was 256 nM. The TGI [22] was 6990 nM, the GI50 [23] was 262 nM and the TGI [23] was > 22400 nM. The GI50 [24] was 153 nM, the TGI [24] was 1830 nM and the GI50 [25] was 128 nM. It also gave a TGI [25] of 9230 nM, a GI50 [26] of 93.3 nM and a TGI [26] of 3070 nM. For the same molecule, the GI50 [27] was 195 nM, the TGI [27] was 2580 nM and the GI50 [28] was 166 nM. The TGI [28] was > 16000 nM, the GI50 [29] was 112 nM and the GI50 [30] was 128 nM. The TGI [30] was 8000 nM, the GI50 [31] was 293 nM and the TGI [31] was > 50000 nM. For the same molecule, the GI50 [32] was 179 nM, the GI50 [33] was 410 nM and the TGI [33] was 18400 nM. For the same molecule, the GI50 [34] was 19.8 nM, the TGI [34] was 2110 nM and the GI50 [35] was 352 nM. For the same molecule, the TGI [35] was > 20700 nM, the GI50 [36] was 707 nM and the TGI [36] was > 26400 nM. It also gave a GI50 [37] of 332 nM, a TGI [37] of 8080 nM and a GI50 [38] of 94.3 nM. The TGI [38] was 40200 nM, the GI50 [39] was 136 nM and the TGI [39] was > 15300 nM. It also gave a GI50 [40] of 153 nM, a TGI [40] of 1100 nM and a GI50 [41] of 92.7 nM. The TGI [41] was 358 nM, the GI50 [42] was 164 nM and the TGI [42] was 1580 nM. The GI50 [43] was 68.5 nM, the TGI [43] was 4040 nM and the GI50 [44] was 61.4 nM. It also gave a TGI [44] of 324 nM, a GI50 [45] of 81.8 nM and a TGI [45] of 407 nM. For the same molecule, the GI50 [46] was 369 nM, the TGI [46] was > 50000 nM and the GI50 [47] was 165 nM. The TGI [47] was 1650 nM, the GI50 [48] was 85.9 nM and the TGI [48] was 40300 nM. The GI50 [49] was 213 nM, the TGI [49] was > 50000 nM and the GI50 [50] was 185 nM. For the same molecule, the TGI [50] was > 9990 nM, the GI50 [51] was 210 nM and the TGI [51] was > 25600 nM. It also gave a GI50 [52] of 39.8 nM, a TGI [52] of 1590 nM and a GI50 [53] of 259 nM. It also gave a TGI [53] of 9990 nM, a GI50 [54] of 72.7 nM and a TGI [54] of 597 nM. For the same molecule, the GI50 [55] was 181 nM, the TGI [55] was 8140 nM and the GI50 [56] was 79.8 nM. It also gave a TGI [56] of 990 nM, a GI50 [57] of 15.7 nM and a TGI [57] of 1050 nM.
